These results are taken from ChEMBL document CHEMBL3045167, “Synthesis and evaluation of antiinflammatory activity of substituted chalcone derivatives” (2010).

Each structure is given as a SMILES string. The source made the active and inactive calls. The rule behind the calls is not given here.

What all share (type): functional
Test [1] relates to Mus musculus. Nature of the test: Anti-inflammatory activity in Mus musculus Kunming (mouse) assessed as inhibition of xylene-induced ear edema at 200 mg/kg, po administered 2 hr prior to xylene challenge measured at 2 hr post xylene challenge relative to control.
Test [2] deals with Mus musculus. The test is described as follows: Anti-inflammatory activity in Mus musculus Kunming (mouse) assessed as inhibition of xylene-induced ear edema at 100 mg/kg, po administered 2 hr prior to xylene challenge measured at 2 hr post xylene challenge relative to control.
The subject of test [3] is Mus musculus. The test is described as follows: Anti-inflammatory activity in Mus musculus Kunming (mouse) assessed as inhibition of xylene-induced ear edema at 200 mg/kg, po administered 24 hr prior to xylene challenge measured at 24 hr post xylene challenge relative to control.
Test [4] concerns Mus musculus. Nature of the test: Anti-inflammatory activity in Mus musculus Kunming (mouse) assessed as inhibition of xylene-induced ear edema at 200 mg/kg, po administered 4 hr prior to xylene challenge measured at 4 hr post xylene challenge relative to control.
For test [5], the system named is Mus musculus. The test is described as follows: Anti-inflammatory activity in Mus musculus Kunming (mouse) assessed as inhibition of xylene-induced ear edema at 200 mg/kg, po administered 3 hr prior to xylene challenge measured at 3 hr post xylene challenge relative to control.
Test [6] concerns Mus musculus. The test is described as follows: Anti-inflammatory activity in Mus musculus Kunming (mouse) assessed as inhibition of xylene-induced ear edema at 200 mg/kg, po administered 1 hr prior to xylene challenge measured at 1 hr post xylene challenge relative to control.
The test system of test [7] is Mus musculus. The test is described as follows: Anti-inflammatory activity in Mus musculus Kunming (mouse) assessed as inhibition of xylene-induced ear edema at 200 mg/kg, po administered 0.5 hr prior to xylene challenge measured at 0.5 hr post xylene challenge relative to control.
Test [8] has as its system Mus musculus. The test is described as follows: Anti-inflammatory activity in Mus musculus Kunming (mouse) assessed as inhibition of xylene-induced ear edema at 50 mg/kg, po administered 2 hr prior to xylene challenge measured at 2 hr post xylene challenge relative to control.

In general, inhibition in vivo refers to the relative decrease from the control value, in per cent. Regarding `CN(C)c1ccc(/C=C/C(=O)c2ccc(O)cc2)cc1`, the inhibition in vivo at 200 mg/kg in the test with Mus musculus [1] stood at 17.3%.
The same measure, in the same setting: the value for `O=C(/C=C/c1ccc(O)cc1)c1ccc(O)cc1O` [ISOLIQUIRITIGENIN] was 14.9%.
As for `O=C(/C=C/c1ccc(Cl)cc1)c1ccc(O)cc1O`, the inhibition in vivo at 100 mg/kg with Mus musculus [2] amounted to 49%. Also, the inhibition in vivo at 200 mg/kg in the test with Mus musculus [3] is 21.5%; in the test on Mus musculus [4], 32.3%; in the test on Mus musculus [5], 33.6%; in the test with Mus musculus [6], 32.5%; with Mus musculus [7] it was 30.2%; in the test on Mus musculus [1], 68.2%. Moreover, in the test on Mus musculus [8], the inhibition in vivo at 50 mg/kg turned out to be 18.6%.
Consider `COc1cc(/C=C/C(=O)c2ccc(O)cc2)ccc1O`, for which the inhibition in vivo at 200 mg/kg in the test with Mus musculus [1] was determined as 7.83%.
For `Cc1ccc(/C=C/C(=O)c2ccc(O)cc2O)cc1`, the inhibition entry with Mus musculus [1] is “inactive”.
As to `CC(C)Cc1ccc(C(C)C(=O)O)cc1` (stereo unspecified) [IBUPROFEN], the inhibition in vivo at 100 mg/kg in the test on Mus musculus [2] came to 33%. The inhibition in vivo at 200 mg/kg in the test on Mus musculus [3] is 20.6%; with Mus musculus [4], 30.1%; in the test on Mus musculus [5] it was 34.5%; in the test with Mus musculus [6] it was 41.6%; with Mus musculus [7] it was 32.5%; with Mus musculus [1], 53.5%. Besides, in the test with Mus musculus [8], the inhibition in vivo at 50 mg/kg is 19.8%.
For `O=C(/C=C/c1ccc2c(c1)OCO2)c1ccc(O)cc1O`, the inhibition in vivo at 200 mg/kg in the test with Mus musculus [1] was 22%.
The same measure, in the same setting: the result for `O=C(/C=C/c1ccc(O)c(O)c1)c1ccc(O)cc1O` [BUTEIN] reads 14.4%; that for `O=C(/C=C/c1ccccc1[N+](=O)[O-])c1ccc(O)cc1O`, 20.2%.
For the molecule `CN(C)c1ccc(/C=C/C(=O)c2ccc(O)cc2O)cc1`, in the test with Mus musculus [2], the inhibition in vivo at 100 mg/kg was determined as 32.9%. In addition, the inhibition in vivo at 200 mg/kg in the test on Mus musculus [3] was 21.2%; with Mus musculus [4], 25.3%; in the test on Mus musculus [5], 27.5%; in the test on Mus musculus [6] it was 45.8%; in the test on Mus musculus [7], 41.7%; with Mus musculus [1], 62.5%. Further, in the test with Mus musculus [8], the inhibition in vivo at 50 mg/kg is 15.1%.
Turning to `O=C(/C=C/c1ccc(Cl)cc1Cl)c1ccc(O)cc1O`, the inhibition in vivo at 200 mg/kg with Mus musculus [1] is 26%.
In the case of `COc1ccc(/C=C/C(=O)c2ccc(O)cc2O)cc1`, in the test on Mus musculus [1], the inhibition in vivo at 200 mg/kg is 51.4%.
On the same count and under the same terms, the value for `O=C(/C=C/c1cccc([N+](=O)[O-])c1)c1ccc(O)cc1O` was 30%.
On the same count and under the same terms, the value for `O=C(/C=C/c1ccc(O)cc1)c1ccc(O)cc1` [4,4'-DIHYDROXYCHALCONE] was 5.42%.
The same measure, in the same setting: the value for `COc1cc(/C=C/C(=O)c2ccc(O)cc2O)ccc1O` [HOMOBUTEIN] was 25.2%.
